{"source": "patent US20170008888A1", "about": "(KYORIN PHARMACEUTICAL CO., LTD., priority 2014, published 2017)", "key": {"AurB or AurC": {"system": "AurB or AurC", "assay": "Probe-based (AX9989) kinase profiling in Jurkat lysate: AurB or AurC", "format": "binding", "conditions": "for AurB or AurC Inhibition % at indicated screening concentration: screening concentration 1 μM", "how_it_was_run": "(§1)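 Compounds were pre-incubated for 15 min at room temperature with gel-filtered Jurkat cell lysate supplemented with 20 mM MnCl2, after which the acyl phosphate ATP probe AX9989 was added at 5 μM final. Labeled active-site peptides were enriched after tryptic digestion and measured by LC/MS, with percent inhibition taken relative to samples without compound.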"}, "human PBMCs": {"system": "human PBMCs", "assay": "Human PBMC TNF-α response to endotoxin (ELISA)", "format": "cell-based", "conditions": "0.1 μg/ml LPS 16 h, read-out: EC50 for the inhibition of the human PBMC TNF-α response to endotoxin, ave. ± S.D.", "how_it_was_run": "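PBMCs at 2e6 cells/ml in RPMI 1640 with 10% charcoal-dextran-treated FBS were pre-treated 1 h at 37 °C with compound (4-point 1:5 dilution from 10 μM). Stimulation with 0.1 μg/ml E. coli 0111:B4 LPS for 16 h; TNF-α measured by ELISA (A450) in 25-fold diluted supernatant.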"}, "[1]": {"biological_target": "T1, BRD4 bromodomain domain I [BRD4(1)] (Homo sapiens, UniProt O60885)", "T1 construct": "BRD4 bromodomain domain I [BRD4(1)]; purchased Cayman Chemicals", "assay": "BRD4 bromodomain domain 1 inhibition assay (TR-FRET)", "format": "binding", "conditions": "screening concentration 10 μM", "how_it_was_run": "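0.5% DMSO, in triplicate, using Cayman BRD4(1) TR-FRET protocol with slight modification. 670/620 nm ratio normalized to 10 μM JQ1, with DMSO control set as 0% inhibition.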"}, "ACK": {"biological_target": "T2, ACK (Homo sapiens, UniProt Q07912)", "T2 construct": "screened for activity against several kinases in Jurkat cells; endogenous in cells; host or cells: Jurkat cell lysate", "T2 sequence (Q07912 whole entry)": "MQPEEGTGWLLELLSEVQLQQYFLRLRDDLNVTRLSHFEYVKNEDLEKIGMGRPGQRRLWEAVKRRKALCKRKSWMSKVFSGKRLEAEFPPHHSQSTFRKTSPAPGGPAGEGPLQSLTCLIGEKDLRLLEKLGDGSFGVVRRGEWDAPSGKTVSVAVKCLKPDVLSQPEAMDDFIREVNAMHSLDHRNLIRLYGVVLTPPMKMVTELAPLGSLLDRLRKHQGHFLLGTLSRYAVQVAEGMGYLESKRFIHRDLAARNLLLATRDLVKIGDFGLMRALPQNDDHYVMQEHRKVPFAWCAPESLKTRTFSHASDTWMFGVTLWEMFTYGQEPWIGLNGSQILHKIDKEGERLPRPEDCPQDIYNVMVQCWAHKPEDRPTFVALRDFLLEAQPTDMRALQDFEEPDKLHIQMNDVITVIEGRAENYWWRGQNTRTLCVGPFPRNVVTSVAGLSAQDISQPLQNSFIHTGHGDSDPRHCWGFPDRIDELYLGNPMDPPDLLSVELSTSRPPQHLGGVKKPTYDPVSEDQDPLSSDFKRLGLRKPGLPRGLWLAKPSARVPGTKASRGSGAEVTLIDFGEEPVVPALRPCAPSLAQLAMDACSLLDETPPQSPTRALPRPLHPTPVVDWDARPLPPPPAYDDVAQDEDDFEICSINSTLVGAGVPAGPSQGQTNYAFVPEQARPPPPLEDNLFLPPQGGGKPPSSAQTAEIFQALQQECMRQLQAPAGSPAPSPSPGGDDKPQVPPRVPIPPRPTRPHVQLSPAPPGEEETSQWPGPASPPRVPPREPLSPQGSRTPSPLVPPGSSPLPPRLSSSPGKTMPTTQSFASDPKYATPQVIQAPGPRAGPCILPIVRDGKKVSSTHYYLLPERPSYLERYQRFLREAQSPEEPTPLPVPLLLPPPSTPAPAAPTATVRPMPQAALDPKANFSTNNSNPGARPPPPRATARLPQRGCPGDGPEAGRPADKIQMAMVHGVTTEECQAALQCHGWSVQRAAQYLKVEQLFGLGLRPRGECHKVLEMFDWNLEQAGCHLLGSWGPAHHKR", "assay": "Probe-based (AX9989) kinase profiling in Jurkat lysate: ACK", "format": "binding", "conditions": "for inhibition at 0.1 µM: screening concentration 0.1 μM", "how_it_was_run": "as §1"}, "[2]": {"conditions": "screening concentration 1 μM, read-out: ACK Inhibition % at indicated screening concentration"}, "[3]": {"conditions": "screening concentration 1.0 μM, read-out: Kinase inhibition % at indicated screening concentration: ACK"}, "[4]": {"conditions": "read-out: Kinase inhibition % at indicated screening concentration: ACK"}}, "note": "Read-outs that look alike come from different tables or passages of the source.", "data": [{"smiles": "CN1CCC(N2CCN(C(=O)c3ccc(Nc4cc5c(cn4)N(C)C(=O)c4ccccc4N5C)c(OC(F)F)c3)CC2)CC1", "note": "[Compound T76]", "values": [{"measurement": "AurB or AurC Inhibition % at indicated screening concentration", "setting": "AurB or AurC", "result": "E (E is ≦35%)"}, {"measurement": "EC50", "setting": "human PBMCs", "result": 1.11, "unit": "µM"}, {"measurement": "inhibition at 10 µM", "setting": "[1]", "result": "70 to 85", "unit": "%"}, {"measurement": "inhibition at 1 µM", "setting": "ACK; [2]", "result": "≤ 35", "unit": "%"}]}, {"smiles": "CCOc1cc(C(=O)NCCn2ccnc2)ccc1Nc1cc2c(cn1)N(C)C(=O)c1ccccc1N2C", "note": "[Compound 84]", "values": [{"measurement": "Kinase inhibition % at indicated screening concentration: AurB or AurC", "setting": "AurB or AurC; screening concentration 1.0 μM", "result": "E (E is ≦35%)"}, {"measurement": "EC50", "setting": "human PBMCs", "result": 1.18, "unit": "µM"}, {"measurement": "inhibition at 10 µM", "setting": "[1]", "result": "< 70", "unit": "%"}, {"measurement": "inhibition at 1 µM", "setting": "ACK; [3]", "result": "≤ 35", "unit": "%"}]}, {"smiles": "CCOc1cc(C(=O)N2CCC(F)C2)ccc1Nc1cc2c(cn1)N(C)C(=O)c1occc1N2C", "note": "(stereo not shown) [Compound 72]", "values": [{"measurement": "Kinase inhibition % at indicated screening concentration: AurB or AurC", "setting": "AurB or AurC; screening concentration 0.1 μM", "result": "E (E is ≦35%)"}, {"measurement": "EC50", "setting": "human PBMCs", "result": "1.23 ± 0.15", "unit": "µM"}, {"measurement": "inhibition at 10 µM", "setting": "[1]", "result": "70 to 85", "unit": "%"}, {"measurement": "inhibition at 0.1 µM", "setting": "ACK; [4]", "result": "≤ 35", "unit": "%"}]}, {"smiles": "CCOc1cc(C(=O)N2CCCC(O)C2)ccc1Nc1cc2c(cn1)N(C)C(=O)c1ccccc1N2C", "note": "(stereo not shown) [Compound 93]", "values": [{"measurement": "Kinase inhibition % at indicated screening concentration: AurB or AurC", "setting": "AurB or AurC; screening concentration 1.0 μM", "result": "E (E is ≦35%)"}, {"measurement": "EC50", "setting": "human PBMCs", "result": 0.76, "unit": "µM"}, {"measurement": "inhibition at 10 µM", "setting": "[1]", "result": "> 85", "unit": "%"}, {"measurement": "inhibition at 1 µM", "setting": "ACK; [3]", "result": "≤ 35", "unit": "%"}]}, {"smiles": "CCOc1cc(C(=O)NCCOC)ccc1Nc1cc2c(cn1)N(C)C(=O)c1ccccc1N2C", "note": "[Compound 83]", "values": [{"measurement": "Kinase inhibition % at indicated screening concentration: AurB or AurC", "setting": "AurB or AurC; screening concentration 1.0 μM", "result": "E (E is ≦35%)"}, {"measurement": "EC50", "setting": "human PBMCs", "result": 1.48, "unit": "µM"}, {"measurement": "inhibition at 10 µM", "setting": "[1]", "result": "< 70", "unit": "%"}, {"measurement": "inhibition at 1 µM", "setting": "ACK; [3]", "result": "≤ 35", "unit": "%"}]}, {"smiles": "CCOc1cc(C(=O)NCCN(CC)CC)ccc1Nc1cc2c(cn1)N(C)C(=O)c1ccccc1N2C", "note": "[Compound 103]", "values": [{"measurement": "Kinase inhibition % at indicated screening concentration: AurB or AurC", "setting": "AurB or AurC; screening concentration 0.1 μM", "result": "E (E is ≦35%)"}, {"measurement": "EC50", "setting": "human PBMCs", "result": "0.62 ± 0.04", "unit": "µM"}, {"measurement": "inhibition at 10 µM", "setting": "[1]", "result": "70 to 85", "unit": "%"}, {"measurement": "inhibition at 0.1 µM", "setting": "ACK; [4]", "result": "≤ 35", "unit": "%"}]}, {"smiles": "CCOc1cc(C(=O)N(C)CCN(C)C)ccc1Nc1cc2c(cn1)N(C)C(=O)c1ccccc1N2C", "note": "[Compound 88]", "values": [{"measurement": "Kinase inhibition % at indicated screening concentration: AurB or AurC", "setting": "AurB or AurC; screening concentration 0.1 μM", "result": "E (E is ≦35%)"}, {"measurement": "EC50", "setting": "human PBMCs", "result": 0.6, "unit": "µM"}, {"measurement": "inhibition at 10 µM", "setting": "[1]", "result": "> 85", "unit": "%"}, {"measurement": "inhibition at 0.1 µM", "setting": "ACK; [4]", "result": "≤ 35", "unit": "%"}]}, {"smiles": "CCOc1cc(C(=O)NCCN2CCCC2)ccc1Nc1cc2c(cn1)N(C)C(=O)c1ccccc1N2C", "note": "[Compound 105]", "values": [{"measurement": "Kinase inhibition % at indicated screening concentration: AurB or AurC", "setting": "AurB or AurC; screening concentration 1.0 μM", "result": "E (E is ≦35%)"}, {"measurement": "EC50", "setting": "human PBMCs", "result": 1.1, "unit": "µM"}, {"measurement": "inhibition at 10 µM", "setting": "[1]", "result": "70 to 85", "unit": "%"}, {"measurement": "inhibition at 1 µM", "setting": "ACK; [3]", "result": "≤ 35", "unit": "%"}]}, {"smiles": "CCOc1cc(C(=O)N2CCC[C@H](O)C2)ccc1Nc1cc2c(cn1)N(C)C(=O)c1ccccc1N2C", "note": "[Compound 96]", "values": [{"measurement": "Kinase inhibition % at indicated screening concentration: AurB or AurC", "setting": "AurB or AurC; screening concentration 0.1 μM", "result": "E (E is ≦35%)"}, {"measurement": "EC50", "setting": "human PBMCs", "result": 0.57, "unit": "µM"}, {"measurement": "inhibition at 10 µM", "setting": "[1]", "result": "> 85", "unit": "%"}, {"measurement": "inhibition at 0.1 µM", "setting": "ACK; [4]", "result": "≤ 35", "unit": "%"}]}, {"smiles": "CCOc1cc(C(=O)N(C)[C@H]2CC[C@H](O)CC2)ccc1Nc1cc2c(cn1)N(C)C(=O)c1ccccc1N2C", "note": "[Compound T64]", "values": [{"measurement": "AurB or AurC Inhibition % at indicated screening concentration", "setting": "AurB or AurC", "result": "E (E is ≦35%)"}, {"measurement": "EC50", "setting": "human PBMCs", "result": 0.62, "unit": "µM"}, {"measurement": "inhibition at 10 µM", "setting": "[1]", "result": "70 to 85", "unit": "%"}, {"measurement": "inhibition at 1 µM", "setting": "ACK; [2]", "result": "≤ 35", "unit": "%"}]}, {"smiles": "CCOc1cc(C(=O)N2CCN(C(C)(C)C)CC2)ccc1Nc1cc2c(cn1)N(C)C(=O)c1ccccc1N2C", "note": "[Compound 94]", "values": [{"measurement": "Kinase inhibition % at indicated screening concentration: AurB or AurC", "setting": "AurB or AurC; screening concentration 0.1 μM", "result": "E (E is ≦35%)"}, {"measurement": "EC50", "setting": "human PBMCs", "result": 0.98, "unit": "µM"}, {"measurement": "inhibition at 10 µM", "setting": "[1]", "result": "70 to 85", "unit": "%"}, {"measurement": "inhibition at 0.1 µM", "setting": "ACK; [4]", "result": "≤ 35", "unit": "%"}]}, {"smiles": "CCOc1cc(C(=O)N2CCC(NC(C)C)C2)ccc1Nc1cc2c(cn1)N(C)C(=O)c1ccccc1N2C", "note": "(stereo not shown) [Compound T4]", "values": [{"measurement": "AurB or AurC Inhibition % at indicated screening concentration", "setting": "AurB or AurC", "result": "E (E is ≦35%)"}, {"measurement": "EC50", "setting": "human PBMCs", "result": 0.49, "unit": "µM"}, {"measurement": "inhibition at 10 µM", "setting": "[1]", "result": "> 85", "unit": "%"}, {"measurement": "inhibition at 1 µM", "setting": "ACK; [2]", "result": "≤ 35", "unit": "%"}]}, {"smiles": "CCOc1cc(C(=O)N2CCC(N3CCN(C)CC3)CC2)ccc1Nc1cc2c(cn1)N(C)C(=O)c1occc1N2C", "note": "[Compound 65]", "values": [{"measurement": "Kinase inhibition % at indicated screening concentration: AurB or AurC", "setting": "AurB or AurC; screening concentration 0.1 μM", "result": "E (E is ≦35%)"}, {"measurement": "EC50", "setting": "human PBMCs", "result": 0.46, "unit": "µM"}, {"measurement": "inhibition at 10 µM", "setting": "[1]", "result": "> 85", "unit": "%"}, {"measurement": "inhibition at 0.1 µM", "setting": "ACK; [4]", "result": "≤ 35", "unit": "%"}]}, {"smiles": "CCOc1cc(C(=O)N2CC[C@@H](N(C)C)C2)ccc1Nc1cc2c(cn1)N(C)C(=O)c1ccccc1N2C", "note": "[Compound 115]", "values": [{"measurement": "Kinase inhibition % at indicated screening concentration: AurB or AurC", "setting": "AurB or AurC; screening concentration 1.0 μM", "result": "E (E is ≦35%)"}, {"measurement": "EC50", "setting": "human PBMCs", "result": "0.84 ± 0.53", "unit": "µM"}, {"measurement": "inhibition at 10 µM", "setting": "[1]", "result": "70 to 85", "unit": "%"}, {"measurement": "inhibition at 1 µM", "setting": "ACK; [3]", "result": "≤ 35", "unit": "%"}]}, {"smiles": "CCOc1cc(C(=O)N2CCNCC2)ccc1Nc1cc2c(cn1)N(C)C(=O)c1ccccc1N2C", "note": "[Compound 62]", "values": [{"measurement": "Kinase inhibition % at indicated screening concentration: AurB or AurC", "setting": "AurB or AurC; screening concentration 1.0 μM", "result": "E (E is ≦35%)"}, {"measurement": "EC50", "setting": "human PBMCs", "result": 0.72, "unit": "µM"}, {"measurement": "inhibition at 10 µM", "setting": "[1]", "result": "70 to 85", "unit": "%"}, {"measurement": "inhibition at 1 µM", "setting": "ACK; [3]", "result": "≤ 35", "unit": "%"}]}, {"smiles": "Cc1cc(CN2CCCC2)ccc1Nc1cc2c(cn1)N(C)C(=O)c1ccccc1N2C", "note": "[Compound 106, 5,11-dimethyl-3-(2-methyl-4-(pyrrolidin-1-ylmethyl)phenylamino)-5H-benzo[e]pyrido[3,4-b][1,4]diazepin-10(11H)-one]", "values": [{"measurement": "Kinase inhibition % at indicated screening concentration: AurB or AurC", "setting": "AurB or AurC; screening concentration 1.0 μM", "result": "E (E is ≦35%)"}, {"measurement": "EC50", "setting": "human PBMCs", "result": 2.84, "unit": "µM"}, {"measurement": "inhibition at 10 µM", "setting": "[1]", "result": "< 70", "unit": "%"}, {"measurement": "inhibition at 1 µM", "setting": "ACK; [3]", "result": "≤ 35", "unit": "%"}]}]}
